Data: patent publication US8421457B2, “Methods and systems for magnetically resonating both a subject and a substance administered to the subject” (Applied Magnetics, LLC, priority 2008, dated 2013)

Columns and labels:
fibromyalgia patients = experiment: Case reports: fibromyalgia, drugs combined with MR treatment; type: in vivo, human
Description: In one example, a person experienced fibromyalgia for a number of years. The subject also experienced insomnia, restless legs, and chronic fatigue. The subject took the drug Naproxen (Aleve). The subject received seven consecutive days of 1 to 1.5 hour treatments.
Their primary complaint was back pain. […] The subject received thirteen treatments within a two-month period. […] Approximately two months after completing their first series of treatment, they began a second regimen of ten treatments within a two-month period.
In a further example, a person at least fifty years old suffered from fibromyalgia for a number of years. […] The subject received daily (when possible) treatments for approximately one year.

osteoarthritis patients = settings: person
From the text: In one example, a person suffered from back pain due to degenerative disk disease in their low back and sciatica. […] The subject was resonated approximately three times per week for more than one year.
In another example, a person experienced arthritis pain in a number of joints, including their hips, hands, and shoulders. The subject also suffered from sciatica in their hips and legs. The subject was taking Celebrex. The subject was resonated at least three times per week for one to two hours per session.
In a further example, a person experienced osteoarthritis pain and stiffness in their hands and finger joints. […] The subject was resonated twice for one-half hour per treatment. The subject was asked to rate their pain on a scale of zero (feels great) to ten (feels terrible) before and after treatment.
Alternatively, an amplitude of about 0.01 μG to about 0.46 μG, with a frequency of about 0.2799 Hz to about 12.8765 Hz may be used.

Parkinson's patient [1] = experiment: Onset of dyskinesias after Levodopa, with and without magnetic resonance (MR) treatment; type: in vivo, human; settings: for % Improved: MR result vs baseline; for MR Result Onset of Dyskinesias: MR whole body immersion (7′)
Description: Subsequently, the selected magnetic resonance treatment regimen may be transmitted from the MR system server 160 to the client computer 120. The operator 138 then may carry out the treatment regimen upon the subject 150 according to the recommended treatment regimen. For example, the recommended magnetic resonance treatment regimen may specify a certain number and frequency of treatment events, wherein for each treatment an amount of a certain substance is administered to the body of the subject, and the subject is then resonated with electromagnetic energy of a certain flux density and certain frequency for a certain amount of time. Subsequent to each magnetic resonance treatment, all related data is updated locally at the client computer 120 and/or remotely at the MR system server 160.

Parkinson's patient [2] = experiment: Average off time of Levodopa, baseline versus MR treatment; type: in vivo, human; settings: for % Improved: MR result vs baseline
From the text: In the example of Table 1, the MR analysis algorithm 166 has performed a query, for example, on the terms “Indication=Parkinson's” in combination with “Substance=Levodopa,” in order to produce one or more records of one or more subjects of one or more treatment events. Subsequently, the selected magnetic resonance treatment regimen may be transmitted from the MR system server 160 to the client computer 120. The operator 138 then may carry out the treatment regimen upon the subject 150 according to the recommended treatment regimen. For example, the recommended magnetic resonance treatment regimen may specify a certain number and frequency of treatment events, wherein for each treatment an amount of a certain substance is administered to the body of the subject, and the subject is then resonated with electromagnetic energy of a certain flux density and certain frequency for a certain amount of time. Subsequent to each magnetic resonance treatment, all related data is updated locally at the client computer 120 and/or remotely at the MR system server 160. Using the example of a subject 150 that has Parkinson's disease, a side effect of certain Parkinson's drugs may be involuntary movements called dyskinesias. Therefore, an example of results that may be logged in treatment data 137 may be observations as to the amount of time from beginning of treatment to the onset of dyskinesias, which is an indication as to the amount of time that it has taken for the substance 152 to enter the subject's body systems. Other observable effects of the MR treatment after the substance 152 that has been administered to the subject's body systems may be a reduction in off time of the drug, a reduction in tremors, and a reduction in joint stiffness.

[3] = tested on: migraine and headache patients; experiment: Case reports: migraine and headache drugs combined with MR treatment; type: in vivo, human; settings: for results on migraines / pain level before being resonated / reduction in pain level: person with migraines taking the drugs; for results on migraines: resonated ten times, 1 to 1.5 hours, over one month; for pain level before being resonated / pain level after treatment: scale of zero to ten; for reduction in pain level: two one-hour MR treatments three months apart; for pain level after treatment: same subject, after ten MR treatments over one month
Description: The subject was resonated ten times for 1 to 1.5 hours per treatment over a one-month period.
In another example, a person experienced pain associated with migraines. […] The subject received two one-hour treatments three months apart.
In a further example, a person experienced pain associated with severe headaches. The subject took Aspirin to treat the pain. The subject received one treatment for one hour.

[4] = tested on: patients with prostate problems, such as an enlarged prostate; experiment: Case report: enlarged prostate drugs combined with MR treatment; type: in vivo, human; settings: for PSA count, last measurement before MR treatment: person, enlarged prostate for fifteen years, taking the drugs; for PSA count after eighteen months of treatment / prostate size after eighteen months of treatment: same subject, three MR treatments per week
Description: In one example, a person had been diagnosed with an enlarged prostate for fifteen years and their PSA count was rising (the last measurement was 2.35). The subject was taking the drugs Avodart and Flomax. The subject began a series of three treatments per week for […], and continuing on an ongoing basis.
In providing MR treatment to a subject with prostate problems, an amplitude of about 0.01 μG to about 0.4 μG, with a frequency of about 0.2799 Hz to about 11.197 Hz may be used.

[5] = same subject, thirteen MR treatments within a two-month period

Structure (SMILES): CCN(CC)CC(=O)Nc1c(C)cccc1C [lidoderm]
- pain level after treatment, first series (fibromyalgia patients; [5]): 0.5

Structure (SMILES): COc1ccc2cc([C@H](C)C(=O)O)ccc2c1 [Naproxen]
- results of continuing treatment (osteoarthritis patients; back pain (degenerative disk disease, sciatica), taking the drugs, resonated approx. three times per week for more than one year): significantly less pain, an improved range of motion, and improved sleep
- pain level before treatment (fibromyalgia patients; Person, fibromyalgia, took Naproxen (Aleve)): six
- initial pain levels before treatments (fibromyalgia patients; person, fibromyalgia, taking Naproxen (Aleve), depending on the area of the body): three to seven
- pain after treatment (fibromyalgia patients; same subject, daily (when possible) MR treatments for approximately one year): total elimination of pain
- pain level after completing treatment (fibromyalgia patients; same subject, seven consecutive days of 1 to 1.5 hour MR treatments): zero to one

Structure (SMILES): NS(=O)(=O)c1cc2c(cc1Cl)NCNS2(=O)=O [HCTZ]
- pre-treatment pain level, first series (fibromyalgia patients; person, fibromyalgia, back pain, on the listed drugs, before MR): 4
- initial pain level, second series (fibromyalgia patients; same subject, approx. two months after first series, before second regimen): 4
- pain level after treatment, first series (fibromyalgia patients; [5]): 0.5

Structure (SMILES): N[C@@H](Cc1ccc(O)c(O)c1)C(=O)O [Levodopa]
- time from consuming Levodopa to dyskinesias (Parkinson's patient [1]; Example 1, Parkinson's patient, no magnetic resonance): about 38 minutes
- time from consuming Levodopa to dyskinesias (Parkinson's patient [1]; Example 1, same Parkinson's patient, substantially the same dosage, then receives magnetic resonance): about 22 minutes
- absorption rate and efficacy of Levodopa on resonating the patient (Parkinson's patient [1]; Parkinson's patient resonated after consuming Levodopa): improved the absorption rate of Levodopa
- % Improved (Parkinson's patient [1]; Record # 1265: onset of dyskinesias, Levodopa 25 mg): 42%
- Baseline Onset of Dyskinesias (Parkinson's patient [1]; Record # 1265: subject A-84, Parkinson's, Levodopa 25 mg ingested): Onset of Dyskinesias 38 mins
- MR Result Onset of Dyskinesias (Parkinson's patient [1]; Record # 1265: subject A-84, Levodopa 25 mg ingested, 0.0667 microgauss, 2.0 Hz, square, 60 mins): Onset of Dyskinesias 22 mins
- % Improved (Parkinson's patient [1]; Record # 7508: onset of dyskinesias, Levodopa 50 mg): 37%
- Baseline Onset of Dyskinesias (Parkinson's patient [1]; Record # 7508: subject W-65, Parkinson's, Levodopa 50 mg ingested): Onset of Dyskinesias 43 mins
- MR Result Onset of Dyskinesias (Parkinson's patient [1]; Record # 7508: subject W-65, Levodopa 50 mg ingested, 0.0697 microgauss, 1.9 Hz, sinusoidal, 80 mins): Onset of Dyskinesias 27 mins
- % Improved (Parkinson's patient [2]; Record # 4752: average off time, Levodopa 50 mg): 17%
- Baseline Average off time (Parkinson's patient [2]; Record # 4752: subject W-65, Parkinson's, Levodopa 50 mg ingested): Average off time 6 hours
- MR Result Average off time (Parkinson's patient [2]; Record # 4752: subject W-65, Levodopa 50 mg ingested, MR partial immersion (4′), 0.0697 microgauss, 1.9 Hz, sinusoidal, 90 mins): Average off time 5 hours
- % Improved (Parkinson's patient [2]; Record # 5942: average off time, Levodopa 25 mg): 33%
- Baseline Average off time (Parkinson's patient [2]; Record # 5942: subject AA-35, Parkinson's, Levodopa 25 mg ingested): Average off time 6 hours
- MR Result Average off time (Parkinson's patient [2]; Record # 5942: subject AA-35, Levodopa 25 mg ingested, MR partial immersion (22″), 0.0717 microgauss, 1.8 Hz, triangle, 70 mins): Average off time 4 hours

Structure (SMILES): CC1(C)O[C@@H]2[C@@H](CO[C@@]3(COS(N)(=O)=O)OC(C)(C)O[C@@H]23)O1 [Topomax]
- results on migraines [3]: decreased frequency and duration of migraines
- pain level before being resonated [3]: nine
- reduction in pain level [3]: 50%
- pain level after treatment [3]: two

Structure (SMILES): COc1ccccc1OCC(O)COC(N)=O (stereo not drawn) [Robaxin]
- pain level after treatment, first series (fibromyalgia patients; [5]): 0.5

Structure (SMILES): Cc1ccc(-c2cc(C(F)(F)F)nn2-c2ccc(S(N)(=O)=O)cc2)cc1 [Celebrex]
- results of treatment (osteoarthritis patients; arthritis pain and sciatica, taking Celebrex, resonated at least three times per week, one to two hours per session): a reduction in dosage and frequency of taking Celebrex, decreased pain, improved mobility, and improved sleep

Structure (SMILES): CCOc1ccccc1OCCN[C@H](C)Cc1ccc(OC)c(S(N)(=O)=O)c1 [Flomax]
- PSA count, last measurement before MR treatment [4]: 2.35
- PSA count after eighteen months of treatment [4]: 0.95
- prostate size after eighteen months of treatment [4]: no longer enlarged

Structure (SMILES): CC(C)C[C@H](CN)CC(=O)O [Lyrica]
- pain level after treatment, first series (fibromyalgia patients; in vivo): 0.5

Structure (SMILES): CCOC(=O)N1CCC(=C2c3ccc(Cl)cc3CCc3cccnc32)CC1 [Claritin]
- pain level after treatment, first series (fibromyalgia patients; [5]): 0.5

Structure (SMILES): CCC(=O)O[C@]1(C(=O)SCF)[C@H](C)C[C@H]2[C@@H]3C[C@H](F)C4=CC(=O)C=C[C@]4(C)[C@@]3(F)[C@@H](O)C[C@@]21C [Flonase]
- pain level after treatment, first series (fibromyalgia patients; [5]): 0.5

Structure (SMILES): O=C1CN=C(c2ccccc2Cl)c2cc([N+](=O)[O-])ccc2N1 [Clonazepam]
- pain level after treatment, first series (fibromyalgia patients; [5]): 0.5

Structure (SMILES): C[C@]12C=CC(=O)N[C@@H]1CC[C@@H]1[C@@H]2CC[C@]2(C)[C@@H](C(=O)Nc3cc(C(F)(F)F)ccc3C(F)(F)F)CC[C@@H]12 [Avodart]
- PSA count, last measurement before MR treatment [4]: 2.35
- PSA count after eighteen months of treatment [4]: 0.95
- prostate size after eighteen months of treatment [4]: no longer enlarged

Structure (SMILES): CNS(=O)(=O)Cc1ccc2[nH]cc(CCN(C)C)c2c1 [Immitrex]
- results on migraines [3]: decreased frequency and duration of migraines
- pain level before being resonated [3]: nine
- reduction in pain level [3]: 50%
- pain level after treatment [3]: two

Structure (SMILES): CN1CC[C@]23c4c5ccc(O)c4O[C@H]2[C@@H](O)C=C[C@H]3[C@H]1C5 [Morphine]
- pain level after treatment, first series (fibromyalgia patients; in vivo): 0.5
